Source: patent US20120100227A1, “KINASE PROTEIN BINDING INHIBITORS” (University of Florida Research Foundation, priority 2009, published 2012)

Tests used:
HCT116p53−/− cells = experiment: Tumor growth in nude mice, HCT116 p53−/−; format: in vivo; conditions: HCT116 p53−/− subcutaneous tumors, 30 mg/kg IP; no significant difference to p53+/+
Experimental: (§1) Tumor Growth in Nude Mice in vivo. Female nude mice, 6 weeks old, were purchased from Harlan Laboratory. The mice were maintained in the animal facility and all experiments were performed in compliance with NIH animal-use guidelines and IACUC protocol approved by the UF Animal Care Committee. BT474 cells were injected, 2×10^6 cells/injection subcutaneously. HCT116p53−/− and HCT116p53+/+ cells were injected subcutaneously into the left and right side of the same mice to decrease variations. In preliminary experiment different doses of the compound were introduced into the mice, and 30-50 mg/kg was chosen as optimal, non-toxic doses. The day after injection, the M13 compound was introduced by IP injection at 30 mg/kg dose daily 5 days/week for 3 weeks. Tumor diameters were measured with calipers and tumor volume in mm^3 was calculated using this formula=(width)^2×Length/2. At the end of experiment, tumor weight and volume was determined.
(§2) M13 decreased similarly colon tumorigenesis in both HCT116 p53+/+ and p53−/− in vivo. […] Thus, in vivo effect of M13 on tumorigenesis is p53-independent.

[1] = system: colon cancer HCT116 p53+/+ cells; experiment: Cell viability assay, HCT116 p53+/+; format: cell-based, human; conditions: dose-dependent
Experimental: (§3) Cell lines and culture. BT474 breast carcinoma cells were maintained in RPMI1640 medium supplemented with 10% fetal bovine serum (FBS), 5 μg/ml insulin, and 1 μg/ml penicillin/streptomycin. The MCF-7 cell line was obtained from ATCC and maintained according to the manufacturer's protocol. HCT116p53+/+ and p53−/− colon cancer cells were maintained in McCoy's5A medium with 10% FBS.
(§4) Cell Viability Assay. The cells were treated with compounds at different concentrations for 24 hours. The 3-(4,5-dimethylthiazol-2-yl)-5-(3-carboxymethoxyphenyl)-2-(4-sulfophenyl)-2H-tetrazolium compound from Promega Viability kit (Madison, Ill.) was added, and the cells were incubated at 37 C for 1-2 hours. The optical density on 96-plate was analyzed with a microplate reader at 490 nm to determine cell viability.
(§5) To study M13 effect in colon cancer cells and its dependence on p53 pathway, we did similar experiments to BT474 cells with colon cancer HCT116 p53−/− and p53+/+ cells. […] Thus, the in vitro effect of M13 on viability, detachment and apoptosis was p53-independent.

[2] = system: colon cancer HCT116 p53−/− cells; experiment: Detachment assay, HCT116 p53−/−; format: cell-based, human; conditions: dose-dependent
Experimental: (§6) Detachment Assay. Cells were plated with and without inhibitors for 24 hours, and detached and attached cells were counted in a hemocytometer. We calculated the percent of detachment by dividing the number of detached cells by the total number of cells. The percent of detached cells was calculated in three independent experiments.
as §5

HCT116p53+/+ cells = experiment: Tumor growth in nude mice, HCT116 p53+/+; format: in vivo; conditions: HCT116 p53+/+ subcutaneous tumors, 30 mg/kg IP; no significant difference to p53−/−
Experimental: as §1, §2

[3] = system: different cancer cells, including breast, melanoma, colon and pancreatic cancers; experiment: MTT cell viability assay in different cancer cells; format: cell-based, human; conditions: MTT assay with 24 M inhibitors, M13 the best of all tested
Experimental: as §4
The name of this compound is Monotritylthymidine and it is available and was ordered from Sigma.

[4] = system: MCF-7 breast cancer cells; experiment: Viability, detachment and apoptosis, MCF-7; format: cell-based, human; conditions: MCF-7, compared with BT474
Experimental: as §3, §4, §6
Apoptosis Assay. […] The percent of apoptotic cells was calculated as a ratio of apoptotic detached cells divided by the total number of cells in three independent experiments in several fields with the fluorescent microscope. […]

[5] = system: BT474 breast cancer cells; experiment: Cell viability (MTT) assay, BT474; format: cell-based, human; conditions: different concentrations, 24 hours
Experimental: as §3, §4

[6] = system: colon cancer HCT116 p53+/+ cells; experiment: Apoptosis assay, HCT116 p53+/+; format: cell-based, human; conditions: dose-dependent
Experimental: (§7) Apoptosis Assay. Detached cells were collected and fixed in 3.7% formaldehyde in 1×PBS solution for the apoptosis assay. Detection of apoptosis was done with Hoechst 33342 staining. The percent of apoptotic cells was calculated as a ratio of apoptotic detached cells divided by the total number of cells in three independent experiments in several fields with the fluorescent microscope. For each experiment 300 cells per treatment were counted.
as §5

[7] = parameters: species or system nude mice; conditions: female, nude, mouse, in vivo
Experimental: as §1

BT474 cells [8] = experiment: Tumor growth in nude mice, BT474; format: in vivo; conditions: BT474 subcutaneous tumors, 30 mg/kg IP daily 5 days/week for 3 weeks
Experimental: as §1
M13 decreased breast tumorigenesis in vivo Breast cancer BT474 cells were implanted into the mice to generate tumors.

[9] = molecular target: T1, complex of FAK and Mdm-2 in BT474 cells (Homo sapiens, UniProt Q05397); experiment: Immunoprecipitation of FAK, complex with Mdm-2; format: cell-based; parameters: dose or concentration left out as unconfirmed
T1 construct: We immunoprecipitated FAK and found complex of FAK with Mdm-2; endogenous in cells; host or cells: BT474 breast cancer cells
T1 sequence (Q05397 whole entry, one chain of several): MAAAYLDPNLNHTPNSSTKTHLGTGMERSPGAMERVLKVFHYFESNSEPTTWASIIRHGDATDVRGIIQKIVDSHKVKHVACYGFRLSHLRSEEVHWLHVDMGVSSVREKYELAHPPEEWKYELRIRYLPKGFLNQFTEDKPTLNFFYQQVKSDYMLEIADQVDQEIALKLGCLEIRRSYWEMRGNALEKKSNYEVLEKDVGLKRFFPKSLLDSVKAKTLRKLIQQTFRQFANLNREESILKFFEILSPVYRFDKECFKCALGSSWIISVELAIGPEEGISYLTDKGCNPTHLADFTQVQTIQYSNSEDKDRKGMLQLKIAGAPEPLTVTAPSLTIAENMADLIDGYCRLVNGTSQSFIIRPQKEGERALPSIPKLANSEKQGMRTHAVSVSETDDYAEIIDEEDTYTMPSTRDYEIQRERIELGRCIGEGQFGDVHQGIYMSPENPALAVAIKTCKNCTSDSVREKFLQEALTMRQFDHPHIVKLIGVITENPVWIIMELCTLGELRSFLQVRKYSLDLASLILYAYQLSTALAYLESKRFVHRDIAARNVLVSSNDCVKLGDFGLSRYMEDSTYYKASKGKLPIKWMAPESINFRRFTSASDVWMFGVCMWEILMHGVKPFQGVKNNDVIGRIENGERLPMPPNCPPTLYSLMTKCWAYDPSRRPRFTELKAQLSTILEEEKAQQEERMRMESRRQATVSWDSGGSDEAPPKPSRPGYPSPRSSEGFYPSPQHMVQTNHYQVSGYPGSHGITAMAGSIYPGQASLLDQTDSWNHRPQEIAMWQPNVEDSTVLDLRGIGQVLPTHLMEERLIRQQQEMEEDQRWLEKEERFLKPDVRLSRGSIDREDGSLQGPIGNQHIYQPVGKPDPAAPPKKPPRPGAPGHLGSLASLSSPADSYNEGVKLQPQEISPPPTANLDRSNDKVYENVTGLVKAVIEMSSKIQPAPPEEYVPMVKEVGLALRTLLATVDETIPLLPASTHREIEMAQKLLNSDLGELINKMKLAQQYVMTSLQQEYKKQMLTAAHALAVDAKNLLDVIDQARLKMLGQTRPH
Experimental: Immunoprecipitation. Immunoprecipitation was performed according to the standard protocol. In brief, the pre-cleared lysates with equal amount of protein were incubated with 1 μg of primary antibody and 30 μl A/G agarose beads overnight at 4° C. The precipitates were washed with lysis buffer three times and re-suspended in 2×Laemmli buffer. The boiled samples were used for Western blotting, as described above.
M13 disrupts complex of FAK and Mdm-2 in BT474 cells. We immunoprecipitated FAK and found complex of FAK with Mdm-2, confirming and reproducing data of Lim et al, Molecular Cell, 2008. At […] dose of M13, there was decreased level of FAK and complex with Mdm-2.

[10] = system: colon cancer HCT116 p53−/− cells; experiment: Cell viability assay, HCT116 p53−/−; format: cell-based, human; conditions: dose-dependent
Experimental: as §3, §4, §5

[11] = system: colon cancer HCT116 p53+/+ cells; experiment: Detachment assay, HCT116 p53+/+; format: cell-based, human; conditions: dose-dependent
Experimental: as §6, §5

[12] = system: BT474 breast cancer cells; experiment: Apoptosis assay (Hoechst 33342), BT474; format: cell-based, human; conditions: BT474, Hoechst 33342 staining of detached cells
Experimental: as §7

[13] = system: BT474 breast cancer cells; experiment: Detachment assay, BT474; format: cell-based, human; conditions: BT474, 24 hours
Experimental: as §6

BT474 cells [14] = experiment: Western blotting of BT474 cells (FAK, Y397-FAK, Mdm-2, p53, caspase-8); format: cell-based, human; conditions: BT474, different doses of M13, Western blot
Experimental: Western Blotting. Cells or homogenized tumor samples were washed twice with cold 1×PBS and lysed on ice for 30 minutes in a buffer containing: 50 mM Tris-HCl (pH 7.5), 150 mM NaCl, 1% Triton-X, 0.5% NaDOC, 0.1% SDS, 5 mM EDTA, 50 mM NaF, 1 mM NaVO3, 10% glycerol and protease inhibitors: 10 μg/ml leupeptin, 10 μg/ml PMSF and 1 μg/m1 aprotinin. The lysates were cleared by centrifugation at 10,000 rpm for 30 minutes at 4° C. Protein concentrations were determined using a Bio-Rad Kit. The boiled samples were loaded on Ready SDS-10% PAGE gels (Bio Rad, Inc) and used for Western blot analysis with the protein-specific antibody. Immunoblots were developed with chemiluminescence Renaissance reagent (NEN Life Science Products, Inc). For quantification, densitometry of protein bands was performed with NIH Scion Image software.
M13 caused dose-dependent increase of Mdm-2, decrease of FAK and activation of caspase-8 in BT474 cells. We treated BT474 cells with different doses of M13 and performed Western blotting with anti-FAK, Y397-FAK, Mdm-2, p53 and caspase-8 antibodies.

[15] = system: colon cancer HCT116 p53−/− cells; experiment: Apoptosis assay, HCT116 p53−/−; format: cell-based, human; conditions: dose-dependent
Experimental: as §7, §5

## Cc1cn(C2CC(O)C(COC(c3ccccc3)(c3ccccc3)c3ccccc3)O2)c(=O)[nH]c1=O (stereo not shown) [M13, 1-[4-hydroxy-5-[tri(phenyl)methoxymethyl]oxolan-2-yl]-5-methylpyrimidine-2,4-dione]
HCT116p53−/− cells
  tumor size: decrease of tumor size
[1]
  viability: equally decreased viability
[2]
  detachment: increased detachment
HCT116p53+/+ cells
  tumor size: decrease of tumor size
[3]
  viability of cancer cells: significantly decreased viability of most cancer cells
[4]
  effect on viability, detachment and apoptosis: the same as with BT474 cells
[5]
  viability: decreased viability of BT474 breast cancer cells in a dose-dependent manner
[6]
  apoptosis: increased detachment and apoptosis
[7]
  optimal, non-toxic doses: 30 to 50 mg/kg
BT474 cells [8]
  breast tumorigenesis in vivo: effectively decreased breast tumorigenesis
[9]
  association of FAK and Mdm-2 (complex): decreased association of FAK and Mdm-2
[10]
  viability: equally decreased viability
[11]
  detachment: increased detachment
[12]
  apoptosis: dose-dependent increase detachment and apoptosis
[13]
  detachment: dose-dependent increase detachment
BT474 cells [14]
  FAK levels: decreased FAK levels
  Mdm-2 levels: increased Mdm-2 levels
  activation of caspase-8: caused activation of caspase-8
[15]
  apoptosis: increased detachment and apoptosis
